In US11634396B2 (priority 2021, dated 2023):
Read-outs that look alike come from different tables or passages of the source.

Key:
human dOR = human dOR (Homo sapiens (Human), UniProt P41143); test: cell-based; details: dOR cAMP Agonist Assay EC50, CHO Tag-lite human dOR stable cell line; forskolin
human mOR = human mOR (Homo sapiens (Human), UniProt P35372); test: cell-based
kOR (OPRK1) = kOR (OPRK1) (Homo sapiens (Human), UniProt P41145); test: KOR β-Arrestin antagonist assay (Tango OPRK1-bla U2OS cells); type: cell-based
Source text: KOR β-Arrestin Agonist and Antagonist assays were preformed using the Tango™ OPRK1-bla U2OS cells from Invitrogen and purchased from ThermoFisher, catalog number K1576.

[1] = CHO Tag-lite human mOR stable cell line, forskolin 4 μM and DAMGO at EC90, read-out: mOR cAMP Antagonist Assay IC50

human dOR, sequence (P41143 whole entry): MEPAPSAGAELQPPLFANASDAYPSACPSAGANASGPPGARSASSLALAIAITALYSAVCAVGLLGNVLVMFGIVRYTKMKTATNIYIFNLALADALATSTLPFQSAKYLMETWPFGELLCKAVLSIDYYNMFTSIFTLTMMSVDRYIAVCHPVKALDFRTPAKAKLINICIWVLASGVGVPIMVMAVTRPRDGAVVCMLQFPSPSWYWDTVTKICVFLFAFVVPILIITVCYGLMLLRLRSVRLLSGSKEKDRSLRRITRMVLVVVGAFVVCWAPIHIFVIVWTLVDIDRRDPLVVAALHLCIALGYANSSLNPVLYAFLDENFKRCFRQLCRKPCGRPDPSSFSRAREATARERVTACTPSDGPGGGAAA
kOR (OPRK1), sequence (P41145 whole entry): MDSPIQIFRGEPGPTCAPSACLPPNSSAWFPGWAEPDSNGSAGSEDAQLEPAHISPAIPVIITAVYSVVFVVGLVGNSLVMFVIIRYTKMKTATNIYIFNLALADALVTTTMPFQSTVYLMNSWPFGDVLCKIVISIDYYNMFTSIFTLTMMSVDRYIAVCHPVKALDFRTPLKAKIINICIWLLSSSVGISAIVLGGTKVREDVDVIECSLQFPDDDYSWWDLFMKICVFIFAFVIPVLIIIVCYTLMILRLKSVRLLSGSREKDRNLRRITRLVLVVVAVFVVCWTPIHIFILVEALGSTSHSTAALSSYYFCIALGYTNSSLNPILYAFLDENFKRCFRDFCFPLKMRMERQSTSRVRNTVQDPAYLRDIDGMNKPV
human mOR, sequence (P35372 whole entry): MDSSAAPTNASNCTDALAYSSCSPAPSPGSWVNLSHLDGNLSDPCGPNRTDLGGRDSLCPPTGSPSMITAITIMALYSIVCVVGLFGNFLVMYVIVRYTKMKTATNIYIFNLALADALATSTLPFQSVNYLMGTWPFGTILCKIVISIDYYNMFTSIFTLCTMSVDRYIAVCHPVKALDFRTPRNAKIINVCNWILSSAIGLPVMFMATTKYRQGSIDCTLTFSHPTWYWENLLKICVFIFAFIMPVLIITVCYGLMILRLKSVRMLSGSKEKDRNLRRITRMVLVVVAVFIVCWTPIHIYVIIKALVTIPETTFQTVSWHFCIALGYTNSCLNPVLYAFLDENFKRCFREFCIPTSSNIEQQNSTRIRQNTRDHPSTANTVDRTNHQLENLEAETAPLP

Row | Compound | EC50 (human dOR) | IC50 (human mOR; [1]) | IC50 (kOR (OPRK1)) | IC50 (human mOR)
1 | Cc1cc(C(N)=O)cc(C)c1C[C@@H](CNC(=O)C[C@@H](c1ccccc1)C1(C(F)(F)F)CC1)N(C)C [Compound 7, 4-((S)-2-(dimethylamino)-3-((S)-3-phenyl-3-(1-(trifluoromethyl)cyclopropyl)propanamido)propyl)-3,5-dimethylbenzamide] | < 300 nM | > 3000 nM | < 300 nM | 
2 | Cc1cc(C(N)=O)cc(C)c1C[C@@H](CNC(=O)C[C@H](c1ccccc1)C1(C(F)(F)F)CC1)N(C)C [Compound 8, 4-((S)-2-(dimethylamino)-3-((R)-3-phenyl-3-(1-(trifluoromethyl)cyclopropyl)propanamido)propyl)-3,5-dimethylbenzamide] | > 3000 nM | > 3000 nM | < 300 nM | 
3 | Cc1cc(C(N)=O)cc(C)c1C[C@@H](CNC(=O)C[C@@H](c1ccccc1)C(C)C)N(C)C [Compound 10, 4-((S)-2-(dimethylamino)-3-((R)-4-methyl-3-phenylpentanamido)propyl)-3,5-dimethylbenzamide] | > 3000 nM |  | < 300 nM | < 300 nM
4 | Cc1cc(C(N)=O)cc(C)c1C[C@@H](CNC(=O)C[C@@H](c1ccccc1)C1CC1)N(C)C [Compound 11, 4-((S)-3-((R)-3-cyclopropyl-3-phenylpropanamido)-2-(dimethylamino)propyl)-3,5-dimethylbenzamide] | > 3000 nM |  | < 300 nM | < 300 nM
5 | Cc1cc(C(N)=O)cc(C)c1C[C@@H](CNC(=O)C[C@@H](CC(C)C)c1ccccc1)N(C)C [Compound 12, 4-[(2S)-2-(dimethylamino)-3-[(3R)-5-methyl-3-phenylhexanamido]propyl]-3,5-dimethylbenzamide] | > 3000 nM |  | < 300 nM | < 300 nM
6 | Cc1ccc([C@@H](CC(=O)NC[C@H](Cc2ccc(C(N)=O)c(F)c2Cl)N(C)C)C2(C(F)(F)F)CC2)cn1 [Compound 20, 3-chloro-4-((S)-2-(dimethylamino)-3-((R)-3-(6-methylpyridin-3-yl)-3-(1-(trifluoromethyl)cyclopropyl)propanamido)propyl)-2-fluorobenzamide] | 300 to 3000 nM | < 300 nM | < 300 nM | 
7 | Cc1ncc([C@@H](CC(=O)NC[C@H](Cc2ccc(C(N)=O)c(F)c2Cl)N(C)C)C2(C(F)(F)F)CC2)cn1 [Compound 21, 3-chloro-4-[(2S)-2-(dimethylamino)-3-[(3R)-3-(2-methylpyrimidin-5-yl)-3-[1-(trifluoromethyl)cyclopropyl]propanamido]propyl]-2-fluorobenzamide] | 300 to 3000 nM |  | < 300 nM | < 300 nM
8 | CN(C)[C@H](CNC(=O)CC(c1cccnc1)C1(C(F)(F)F)CC1)Cc1ccc(C(N)=O)cc1Cl (stereo partly drawn) [Compound 38, 3-chloro-4-[(2S)-2-(dimethylamino)-3-[3-(pyridin-3-yl)-3-[1-(trifluoromethyl)cyclopropyl]propanamido]propyl]benzamide] |  |  | < 300 nM | < 300 nM
9 | CN(C)[C@H](CNC(=O)C[C@H](c1ccccc1)C1(C(F)(F)F)CC1)Cc1ccc(C(N)=O)cc1Cl [Compound 39, 3-chloro-4-[(2S)-2-(dimethylamino)-3-[(3R)-3-phenyl-3-[1-(trifluoromethyl)cyclopropyl]propanamido]propyl]benzamide] | > 3000 nM |  | < 300 nM | < 300 nM
10 | CN(C)[C@H](CNC(=O)C[C@@H](c1cccnc1)C1(C(F)(F)F)CC1)Cc1ccc(C(N)=O)cc1Cl [Compound 41, 3-chloro-4-((S)-2-(dimethylamino)-3-((S)-3-(pyridin-3-yl)-3-(1-(trifluoromethyl)cyclopropyl)propanamido)propyl)benzamide] |  |  | < 300 nM | < 300 nM
11 | COc1ccc(C(CC(=O)NC[C@H](Cc2cc(F)c(C(N)=O)c(F)c2)N(C)C)C2(C(F)(F)F)CC2)cn1 (stereo partly drawn) [Compound 49, 4-[(2S)-2-(dimethylamino)-3-[3-(6-methoxypyridin-3-yl)-3-[1-(trifluoromethyl)cyclopropyl]propanamido]propyl]-2,6-difluorobenzamide] |  |  | < 300 nM | > 3000 nM
12 | Cc1ncc([C@@H](CC(=O)NC[C@H](Cc2ccc(C(N)=O)c(F)c2)N2CCCC2)C2(C(F)(F)F)CC2)cn1 [Compound 65, 2-fluoro-4-((S)-3-((R)-3-(2-methylpyrimidin-5-yl)-3-(1-(trifluoromethyl)cyclopropyl)propanamido)-2-(pyrrolidin-1-yl)propyl)benzamide] |  |  | 300 to 3000 nM | > 3000 nM
13 | CN(C)[C@H](CNC(=O)C[C@@H](CC1CC1)c1cccnc1)Cc1ccc(C(N)=O)c(F)c1 [Compound 66, 4-((S)-3-((R)-4-cyclopropyl-3-(pyridin-3-yl)butanamido)-2-(dimethylamino)propyl)-2-fluorobenzamide] |  |  | < 300 nM | < 300 nM
14 | Cc1ncc([C@@H](CC(=O)NC[C@H](Cc2ccc(C(N)=O)c(F)c2)N(C)C)C2(C(F)(F)F)CC2)cn1 [Compound 68, 4-((S)-2-(dimethylamino)-3-((R)-3-(2-methylpyrimidin-5-yl)-3-(1-(trifluoromethyl)cyclopropyl)propanamido)propyl)-2-fluorobenzamide] | > 3000 nM |  | < 300 nM | < 300 nM
15 | CN(C)[C@H](CNC(=O)CC(c1cncnc1)C1(C(F)(F)F)CC1)Cc1ccc(C(N)=O)c(F)c1 (stereo partly drawn) [Compound 72, 4-[(2S)-2-(dimethylamino)-3-[3-(pyrimidin-5-yl)-3-[1-(trifluoromethyl)cyclopropyl]propanamido]propyl]-2-fluorobenzamide] |  | < 300 nM | < 300 nM | 
16 | CN(C)[C@H](CNC(=O)CC(c1ncc(Cl)cn1)C1(C(F)(F)F)CC1)Cc1ccc(C(N)=O)c(F)c1 (stereo partly drawn) [Compound 73, 4-[(2S)-3-[3-(5-chloropyrimidin-2-yl)-3-[1-(trifluoromethyl)cyclopropyl]propanamido]-2-(dimethylamino)propyl]-2-fluorobenzamide] |  |  | < 300 nM | < 300 nM
17 | CN(C)[C@H](CNC(=O)CC(c1cccnc1)C1(C(F)(F)F)CC1)Cc1ccc(C(N)=O)c(F)c1 (stereo partly drawn) [Compound 74, 4-[(2S)-2-(dimethylamino)-3-[3-(pyridin-3-yl)-3-[1-(trifluoromethyl)cyclopropyl]propanamido]propyl]-2-fluorobenzamide] |  |  | < 300 nM | > 3000 nM
18 | Cc1ccc([C@@H](CC(=O)NC[C@H](Cc2ccc(C(N)=O)c(F)c2)N(C)C)C2(C(F)(F)F)CC2)cn1 [Compound 75, 4-[(2S)-2-(dimethylamino)-3-[(3R)-3-(6-methylpyridin-3-yl)-3-[1-(trifluoromethyl)cyclopropyl]propanamido]propyl]-2-fluorobenzamide] |  |  | < 300 nM | < 300 nM
19 | CN(C)[C@H](CNC(=O)CC(c1cncc(F)c1)C1(C(F)(F)F)CC1)Cc1ccc(C(N)=O)c(F)c1 (stereo partly drawn) [Compound 76, 4-[(2S)-2-(dimethylamino)-3-[3-(5-fluoropyridin-3-yl)-3-[1-(trifluoromethyl)cyclopropyl]propanamido]propyl]-2-fluorobenzamide] |  |  | < 300 nM | > 3000 nM
20 | CN(C)[C@H](CNC(=O)C[C@H](c1ccccc1)C1(C(F)(F)F)CC1)Cc1ccc(C(N)=O)c(F)c1 [Compound 77, 4-((S)-2-(dimethylamino)-3-((R)-3-phenyl-3-(1-(trifluoromethyl)cyclopropyl)propanamido)propyl)-2-fluorobenzamide] | > 3000 nM |  | < 300 nM | < 300 nM
21 | CN(C)[C@H](CNC(=O)C[C@H](c1ccccn1)C1(C(F)(F)F)CC1)Cc1ccc(C(N)=O)cc1 [Compound 81, 4-((S)-2-(dimethylamino)-3-((S)-3-(pyridin-2-yl)-3-(1-(trifluoromethyl)cyclopropyl)propanamido)propyl)benzamide] |  |  | < 300 nM | < 300 nM
22 | CN(C)[C@H](CNC(=O)C[C@@H](c1ccccn1)C1(C(F)(F)F)CC1)Cc1ccc(C(N)=O)cc1 [Compound 84, 4-[(2S)-2-(dimethylamino)-3-[(3R)-3-(pyridin-2-yl)-3-[1-(trifluoromethyl)cyclopropyl]propanamido]propyl]benzamide] |  |  | < 300 nM | < 300 nM
23 | CN[C@H](CNC(=O)C[C@H](c1ccccc1)C1(C(F)(F)F)CC1)Cc1ccc(C(N)=O)cc1 [Compound 85, 4-[(2S)-2-(methylamino)-3-[(3R)-3-phenyl-3-[1-(trifluoromethyl)cyclopropyl]propanamido]propyl]benzamide] |  |  | < 300 nM | < 300 nM
24 | CNC(=O)c1ccc(C[C@@H](CNC(=O)CC(c2ccccn2)C2(C(F)(F)F)CC2)N(C)C)c(C)c1 (stereo partly drawn) [Compound 141, 4-((2S)-2-(dimethylamino)-3-(3-(pyridin-2-yl)-3-(1-(trifluoromethyl)cyclopropyl)propanamido)propyl)-N,3-dimethylbenzamide] |  |  | < 300 nM | < 300 nM
25 | CN(C)[C@H](CNC(=O)C[C@H](c1cccnc1)C1(C(F)(F)F)CC1)Cc1ccc(O)cc1C(F)(F)F [Compound 255, (R)-N-((S)-2-(dimethylamino)-3-(4-hydroxy-2-(trifluoromethyl)phenyl)propyl)-3-(pyridin-3-yl)-3-(1-(trifluoromethyl)cyclopropyl) propanamide] |  |  | > 3000 nM | < 300 nM
26 | COc1ccc(C(CC(=O)NC[C@H](Cc2ccc(O)cc2C)N(C)C)C2(C(F)(F)F)CC2)cn1 (stereo partly drawn) [Compound 273, N-((S)-2-(dimethylamino)-3-(4-hydroxy-2-methylphenyl)propyl)-3-(6-methoxypyridin-3-yl)-3-(1-(trifluoromethyl)cyclopropyl) propanamide] |  |  | < 300 nM | < 300 nM
27 | Cc1cc(O)cc(C)c1C[C@@H](CNC(=O)CC(c1cccnc1)C1(C(F)(F)F)CC1)N(C)C (stereo partly drawn) [Compound 316, N-((S)-2-(dimethylamino)-3-(4-hydroxy-2,6-dimethylphenyl)propyl)-3-(pyridin-3-yl)-3-(1-(trifluoromethyl)cyclopropyl)propanamide] |  |  | < 300 nM | < 300 nM
